B1: Wnt3A: Wnt ligand used to treat RKO cells (protein, UniProt P56704 19-352, looked up)
Protein Wnt-3a: SYPIWWSLAVGPQYSSLGSQPILCASIPGLVPKQLRFCRNYVEIMPSVAEGIKIGIQECQHQFRGRRWNCTTVHDSLAIFGPVLDKATRESAFVHAIASAGVAFAVTRSCAEGTAAICGCSSRHQGSPGKGWKWGGCSEDIEFGGMVSREFADARENRPDARSAMNRHNNEAGRQAIASHMHLKCKCHGLSGSCEVKTCWWSQPDFRAIGDFLKDKYDSASEMVVEKHRESRGWVETLRPRYTYFKVPTERDLVYYEASPNFCEPNPETGSFGTRDRTCNVSSHGIDGCDLLCCGRGHNARAERRREKCRCVFHWCCYVSCQECTRVYDVHTCK

Assays:
Format in all cases: cell-based, human
[1] = system: RKO cells; test: Cell viability of wild-type and BCL9 knockout RKO cells after Poly I:C
[2] = system: RGS4, CACNA2D1, ADRB1 mRNA; test: mRNA expression by RNA-seq / qRT-PCR; details: FIG. 3J
Experimental: RNA was extracted from wild type and BCL9 knockout RKO cells with or without Poly I:C treatment (1 μg/ml) and subsequently purified using the TURBO DNA-free™ Kit (AM1907, invitrogen) to remove any residual DNA. An RNA library was prepared using the ribosome RNA removing method and sequenced with a 150 bp paired-end protocol in the Center for Cancer Computational Biology at the Dana Farber Cancer Institute (PRJNA554110). After quality control (QC) analysis was performed using fastQC, the first 10 bases were trimmed for each read. STAR software was used to map the readings to the human genome (hg19) and duplicates were removed using Picard. HTSeq was used to evaluate the gene expression levels by the count number for each gene and were subsequently annotated using the Ensemble database. Gene differential analysis was then applied to the expression profiling table using R package edgeR. For further analysis, the difference in exon usage between different conditions was calculated and R package DEXSeq was used to find differences between them.

[3] = system: BCL9/β-catenin protein complex; test: Coimmunoprecipitation of BCL9/β-catenin complex
Experimental: To extract nuclear protein, cells were incubated with cytoplasmic lysis buffer (50 mM Tris-HCl pH=8.0, 20 mM NaCl, 2 mM EDTA, 0.5% Tween-20 containing protease/phosphatase Inhibitor, #5872, Cell Signaling®) on ice for 10 mins, centrifuged at 6000×g, and the precipitate collected. This step was repeated 3 times to remove at much cytoplasmic protein as possible. Subsequently, nuclear lysis buffer (50 mM Tris-HCl pH=7.4, 150 mM NaCl, 2 mM EDTA, 1% Triton X-100(v/v) containing protease/phosphatase inhibitor) was added to the precipitate, and sonication was used to lyse the sample before centrifugation at 16000×g for 15 minutes at 4 degrees. 1 mg of the nuclear lysate was blocked with 5% BSA for 1 hr at 4 degrees, before overnight incubation with anti-BCL9 (ab37305 Abcam®, 6109 generated in New England Biolabs), NONO (ab70335, Abcam®), SFPQ (ab38148), ILF2 (H00003608-D01, abnova) or β-catenin (9562L, Cell Signaling®) antibodies. Normal rabbit IgG (sc-3888, Santa Cruz®) was used as a negative control. The following day, Protein G and A DynaBeads (10003D, 10002D, ThermoFisher®) were added to the nuclear lysate at a ratio of 1:1 and rotated for an additional 4 hrs. […] In addition, pulled down protein samples were analyzed by silver staining; bands which existed in anti-BCL9 samples, but not in the anti-normal IgG groups, were cut and used for further MS analysis to validate previous results. […]

[4] = system: DLD-1 cells; test: IF and Co-IP of BCL9 with paraspeckle proteins in DLD-1 cells
Experimental: To extract nuclear protein, cells were incubated with cytoplasmic lysis buffer (50 mM Tris-HCl pH=8.0, 20 mM NaCl, 2 mM EDTA, 0.5% Tween-20 containing protease/phosphatase Inhibitor, #5872, Cell Signaling®) on ice for 10 mins, centrifuged at 6000×g, and the precipitate collected. This step was repeated 3 times to remove at much cytoplasmic protein as possible. Subsequently, nuclear lysis buffer (50 mM Tris-HCl pH=7.4, 150 mM NaCl, 2 mM EDTA, 1% Triton X-100(v/v) containing protease/phosphatase inhibitor) was added to the precipitate, and sonication was used to lyse the sample before centrifugation at 16000×g for 15 minutes at 4 degrees. […] In addition, pulled down protein samples were analyzed by silver staining; bands which existed in anti-BCL9 samples, but not in the anti-normal IgG groups, were cut and used for further MS analysis to validate previous results. […]
Cells were cultured on coming Glass Coverslips (354085, BioCoat) contained within the wells of a 24-well plate for 24 hrs, and then fixed using 4% paraformaldehyde. […] The colocalization threshold is calculated by ImageJ2. Dotted staining area of BCL9 was calculated by the following step: confocal images were processed by High Frequency Signaling Removal to filter out the rapidly changing signal. […]

[5] = system: BCL9; test: Immunoblotting of protein levels; details: longer exposure, FIG. 3F and 16D
Experimental: Following lysis, cells were incubated on ice for 10 minutes and centrifuged for 10 minutes at 4 degrees at 16000×g.

[6] = system: BCL9; test: Immunofluorescence / FISH of BCL9 localization; details: RKO cells
Experimental: At various times after the scratch was made, cells were fixed with 4% paraformaldehyde for 15 minutes at room temperature. Immunofluorescence was subsequently used to identify the location of BCL9 (see immunofluorescence method section for more detail).
Cells were cultured on coming Glass Coverslips (354085, BioCoat) contained within the wells of a 24-well plate for 24 hrs, and then fixed using 4% paraformaldehyde. Cells were washed three times with PBS, permeabilized with 0.5% Triton X-100 (Tris-HCl pH=7.6, 150 mM NaCl, 0.5% Triton X-100 (v/v), washing buffer) for 15 minutes at room temperature, and blocked with 5% BSA for 1 hour at room temperature. The cells were incubated overnight at 4 degrees with the following antibodies; anti-BCL9 (ab37305, Abcam®), NONO (TA504777, Origene®), ILF2 (PA5-18718, ThermoFisher®) or β-catenin (610154, BD Transduction Laboratories). The following day, cells were washed 3 times with PBS and incubated with fluorescently tagged anti-mouse (A11029, ThermoFisher®), rabbit (A11035, ThermoFisher®) or goat (A21447, ThermoFisher®) secondary antibodies for 1 hour at room temperature. Cells were washed 3 times with PBS and stained with DAPI (D9542, Millipore-Sigma®) for two mins. Cells were subsequently washed three times with PBS to remove any residual DAPI stain, and then imaged with an SD confocal microscope. The colocalization threshold is calculated by ImageJ2. Dotted staining area of BCL9 was calculated by the following step: confocal images were processed by High Frequency Signaling Removal to filter out the rapidly changing signal. This process removes the noise and non-dotted staining of BCL9. Then, the top 2% signaling areas were selected. High Frequency Signaling Removal and area size was calculated by ImageJ2. NEAT1 and fluorescence probe was purchased from Biosearch Technology (NEAT1, SMF-2036-1). IF combined FISH of BCL9/NEAT1 was performed as recommended by the supplier.

[7] = system: RKO cells; test: Live-cell calcium imaging of spontaneous calcium transients (GCaMP5); details: calcium wave spike library
Experimental: 2 mg/ml neomycin was added to the cell culture medium 48 hrs after transfection to generate cell lines with stable GCaMP5 expression and removed one week prior to the initiation of experiment. Calcium transients were captured by live-cell imaging using a confocal microscope. Time lapse imaging was setup so that an image was captured every 0.5 s for 30 minutes, with an exposure time of 0.5 s. Calcium measurements were normalized to background fluorescence and the relative change in calcium (F(t)) over time was calculated by the formula: […]
where F0 was defined as the average intensity of the 20% lowest grey values in a region of interest (ROI), F was defined as the normalized grey values of ROI in time point t. Global synchronicity was calculated by cross correlation method in FluoroSNNAP (seas.upenn.edu/˜molneuro/fluorosnnap.html).

[8] = system: BCL9/paraspeckle proteins (NONO, SFPQ, ILF2); test: Coimmunoprecipitation of BCL9 with paraspeckle proteins; details: RKO cells, FIG. 16K
Experimental: This step was repeated 3 times to remove at much cytoplasmic protein as possible. Subsequently, nuclear lysis buffer (50 mM Tris-HCl pH=7.4, 150 mM NaCl, 2 mM EDTA, 1% Triton X-100(v/v) containing protease/phosphatase inhibitor) was added to the precipitate, and sonication was used to lyse the sample before centrifugation at 16000×g for 15 minutes at 4 degrees. […] The following day, Protein G and A DynaBeads (10003D, 10002D, ThermoFisher®) were added to the nuclear lysate at a ratio of 1:1 and rotated for an additional 4 hrs. The beads were washed 3 times with washing buffer (50 mM Tris-HCl pH=7.4, 200 mM NaCl, 2 mM EDTA, 1% Triton X-100(v/v)). The beads were then re-suspended with 2×LDS sample buffer and boiled for 10 mins. For Immunoblotting, the sample was electrophoresed using SDS-PAGE, transferred to nitrocellulose membrane and blocked using non-fat 5% milk.

BCL9 binding to paraspeckle proteins [8] | Molecule | growth of cells ([1]; BCL9 knockout RKO cells) | growth of cells ([1]; wild-type RKO cells) | transcription of the full-length RGS4 mRNA isoform ([2]; BCL9 knockout cells) | expression of RGS4, CACNA2D1 and ADRB1 ([2]; wild-type RKO cells, RNA-seq, Poly I:C 1 μg/ml) | amount of BCL9/β-catenin protein complex ([3]; Colo320 cells, FIG. 16J) | location and interaction of BCL9 with paraspeckle proteins [4] | BCL9 and ILF2 protein levels [5] | partial co-localization between BCL9/IF and NEAT1/FISH signals ([6]; FIG. 16I) | accumulation of BCL9 around the nucleus ([6]; after 6 hrs, FIG. 16C) | BCL9 accumulation around the nucleolus ([6]; longer exposure, FIG. 3F) | length and amplitude of calcium transients ([7]; BCL9 knockout cells) | length and amplitude of calcium transients ([7]; wild-type cells) | interaction between BCL9 and β-catenin ([3]; RKO cells, FIG. 16K)
– | poly I:C | not | increased | not rescued | increased | reduced | unresponsive | increased | increased | accumulation of BCL9 around the nucleus was observed | induced further BCL9 accumulation around the nucleolus | not | enhanced | –
did not affect | B1 | – | – | – | – | – | – | – | – | – | – | – | – | increased

From US20220364184A1, “COMPOSITIONS AND METHODS FOR TREATMENT OF A POOR PROGNOSIS SUBTYPE OF COLORECTAL CANCER” (DANA-FARBER CANCER INSTITUTE, INC., priority 2019, published 2022)
